Laboratory results as given in the supplement of paper PMC10307832.

Legend:
Assay in all cases: relative viability (nuclei count vs DMSO), 5 days (fraction); higher = more cells survive
[1] = system: EPLC-272H
Procedure, shortened: (§1)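 Dosing by pin tool came one day after lung cancer cell lines were seeded in 1536-well plates, using either one drug or a fixed anchor-drug dose plus five library-drug doses (not always all listed) in √10 steps. After 5 days, nuclei were counted on 4× images. Relative viability is treated-well nuclei count divided by vehicle-well nuclei count, and values are medians of duplicate plates.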

[2] = system: H3255
Procedure, shortened: as §1

[3] = system: HARA
Procedure, shortened: as §1

[4] = system: LC-2-ad
Procedure, shortened: as §1

[5] = system: LOU-NH91
Procedure, shortened: as §1

[6] = system: NCI-H1651
Procedure, shortened: as §1

[7] = system: NCI-H1975
Procedure, shortened: as §1

[8] = system: NCI-H2009
Procedure, shortened: as §1

[9] = system: NCI-H2023
Procedure, shortened: as §1

[10] = system: NCI-H2085
Procedure, shortened: as §1

[11] = system: NCI-H2087
Procedure, shortened: as §1

[12] = system: NCI-H2228
Procedure, shortened: as §1

[13] = system: NCI-H23
Procedure, shortened: as §1

[14] = system: NCI-H441
Procedure, shortened: as §1

[15] = system: NCI-H650
Procedure, shortened: as §1

[16] = system: NCI-H727
Procedure, shortened: as §1

[17] = system: NCI-H838
Procedure, shortened: as §1

[18] = system: PC-3 [JPC-3]
Procedure, shortened: as §1

[19] = system: SW 1573
Procedure, shortened: as §1

[20] = system: UMC-11
Procedure, shortened: as §1

SMILES: CCNC(=O)c1noc(-c2cc(C(C)C)c(O)cc2O)c1-c1ccc(CN2CCOCC2)cc1 [Luminespib] + C[C@]1(O)C[C@@H](c2nc(-c3ccc4ccc(-c5ccccc5)nc4c3)c3c(N)nccn32)C1 [Linsitinib] (partner 1 µM)
- relative viability ([1]; first compound 0.006325 µM): 1.07
- relative viability ([1]; first compound 0.02 µM): 0.727
- relative viability ([1]; first compound 0.06325 µM): 1.11
- relative viability ([1]; first compound 0.2 µM): 1.14
- relative viability ([2]; first compound 0.002 µM): 0.929
- relative viability ([2]; first compound 0.006325 µM): 0.868
- relative viability ([2]; first compound 0.02 µM): 0.65
- relative viability ([2]; first compound 0.06325 µM): 0.885
- relative viability ([2]; first compound 0.2 µM): 0.228
- relative viability ([3]; first compound 0.002 µM): 0.85
- relative viability ([3]; first compound 0.006325 µM): 0.797
- relative viability ([3]; first compound 0.02 µM): 1.12
- relative viability ([3]; first compound 0.06325 µM): 0.738
- relative viability ([3]; first compound 0.2 µM): 0.0694
- relative viability ([4]; first compound 0.002 µM): 0.887
- relative viability ([4]; first compound 0.006325 µM): 0.806
- relative viability ([4]; first compound 0.02 µM): 0.808
- relative viability ([4]; first compound 0.06325 µM): 0.165
- relative viability ([4]; first compound 0.2 µM): 0.129
- relative viability ([5]; first compound 0.002 µM): 0.913
- relative viability ([5]; first compound 0.006325 µM): 0.923
- relative viability ([5]; first compound 0.02 µM): 0.649
- relative viability ([5]; first compound 0.06325 µM): 0.393
- relative viability ([5]; first compound 0.2 µM): 0.348
- relative viability ([6]; first compound 0.002 µM): 0.874
- relative viability ([6]; first compound 0.006325 µM): 0.983
- relative viability ([6]; first compound 0.02 µM): 1.08
- relative viability ([6]; first compound 0.06325 µM): 0.308
- relative viability ([6]; first compound 0.2 µM): 0.174
- relative viability ([7]; first compound 0.002 µM): 1.08
- relative viability ([7]; first compound 0.006325 µM): 0.882
- relative viability ([7]; first compound 0.02 µM): 0.492
- relative viability ([7]; first compound 0.06325 µM): 0.156
- relative viability ([7]; first compound 0.2 µM): 0.141
- relative viability ([8]; first compound 0.002 µM): 1.21
- relative viability ([8]; first compound 0.006325 µM): 1.2
- relative viability ([8]; first compound 0.02 µM): 1.21
- relative viability ([8]; first compound 0.06325 µM): 1.13
- relative viability ([8]; first compound 0.2 µM): 0.0697
- relative viability ([9]; first compound 0.002 µM): 0.652
- relative viability ([9]; first compound 0.006325 µM): 0.575
- relative viability ([9]; first compound 0.02 µM): 0.732
- relative viability ([9]; first compound 0.06325 µM): 0.0892
- relative viability ([9]; first compound 0.2 µM): 0.0832
- relative viability ([10]; first compound 0.002 µM): 0.405
- relative viability ([10]; first compound 0.006325 µM): 0.76
- relative viability ([10]; first compound 0.02 µM): 0.826
- relative viability ([10]; first compound 0.06325 µM): 0.442
- relative viability ([10]; first compound 0.2 µM): 0.241
- relative viability ([11]; first compound 0.002 µM): 1.01
- relative viability ([11]; first compound 0.006325 µM): 0.714
- relative viability ([11]; first compound 0.02 µM): 1.08
- relative viability ([11]; first compound 0.06325 µM): 0.263
- relative viability ([11]; first compound 0.2 µM): 0.204
- relative viability ([12]; first compound 0.002 µM): 0.612
- relative viability ([12]; first compound 0.006325 µM): 0.629
- relative viability ([12]; first compound 0.02 µM): 0.203
- relative viability ([12]; first compound 0.06325 µM): 0.168
- relative viability ([12]; first compound 0.2 µM): 0.199
- relative viability ([13]; first compound 0.002 µM): 0.674
- relative viability ([13]; first compound 0.006325 µM): 0.55
- relative viability ([13]; first compound 0.02 µM): 0.355
- relative viability ([13]; first compound 0.06325 µM): 0.172
- relative viability ([13]; first compound 0.2 µM): 0.136
- relative viability ([14]; first compound 0.002 µM): 0.797
- relative viability ([14]; first compound 0.006325 µM): 0.5
- relative viability ([14]; first compound 0.02 µM): 0.485
- relative viability ([14]; first compound 0.06325 µM): 0.108
- relative viability ([14]; first compound 0.2 µM): 0.0934
- relative viability ([15]; first compound 0.002 µM): 0.917
- relative viability ([15]; first compound 0.006325 µM): 0.888
- relative viability ([15]; first compound 0.02 µM): 0.497
- relative viability ([15]; first compound 0.06325 µM): 0.0891
- relative viability ([15]; first compound 0.2 µM): 0.117
- relative viability ([16]; first compound 0.002 µM): 0.317
- relative viability ([16]; first compound 0.006325 µM): 0.258
- relative viability ([16]; first compound 0.02 µM): 0.284
- relative viability ([16]; first compound 0.06325 µM): 0.221
- relative viability ([16]; first compound 0.2 µM): 0.211
- relative viability ([17]; first compound 0.002 µM): 1
- relative viability ([17]; first compound 0.006325 µM): 0.942
- relative viability ([17]; first compound 0.02 µM): 0.77
- relative viability ([17]; first compound 0.06325 µM): 0.13
- relative viability ([17]; first compound 0.2 µM): 0.149
- relative viability ([18]; first compound 0.002 µM): 0.963
- relative viability ([18]; first compound 0.006325 µM): 0.939
- relative viability ([18]; first compound 0.02 µM): 0.991
- relative viability ([18]; first compound 0.06325 µM): 0.997
- relative viability ([18]; first compound 0.2 µM): 0.897
- relative viability ([19]; first compound 0.002 µM): 0.88
- relative viability ([19]; first compound 0.006325 µM): 0.594
- relative viability ([19]; first compound 0.02 µM): 0.707
- relative viability ([19]; first compound 0.06325 µM): 0.423
- relative viability ([19]; first compound 0.2 µM): 0.123
- relative viability ([20]; first compound 0.002 µM): 0.997
- relative viability ([20]; first compound 0.006325 µM): 0.993
- relative viability ([20]; first compound 0.02 µM): 0.962
- relative viability ([20]; first compound 0.06325 µM): 0.648
- relative viability ([20]; first compound 0.2 µM): 0.181
